Key:
Assay in all cases: relative viability (nuclei count vs DMSO), 5 days (fraction); higher = more cells survive
[1] = tested on: NCI-H1734
Procedure, shortened: (§1)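 After 5 days of treatment, lung cancer cells in 1536-well plates were fixed and stained in a single step (final 0.05% Triton X-100, 1% formaldehyde, 1 ug/ml Hoechst) and their nuclei counted on 4× images. Treatment had been applied by pin tool the day after seeding as one drug alone or as a fixed anchor-drug dose with five library-drug doses (not always all listed) in √10 steps. Relative viability is the nuclei count of treated wells divided by that of vehicle wells, and values are medians of duplicate plates.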

[2] = tested on: NCI-H838
Procedure, shortened: as §1

[3] = tested on: NCI-H2228
Procedure, shortened: as §1

[4] = tested on: NCI-H2405
Procedure, shortened: as §1

[5] = tested on: A-427
Procedure, shortened: as §1

[6] = tested on: UMC-11
Procedure, shortened: as §1

[7] = tested on: EMC-BAC-2
Procedure, shortened: as §1

[8] = tested on: NCI-H23
Procedure, shortened: as §1

[9] = tested on: NCI-H2009
Procedure, shortened: as §1

[10] = tested on: NCI-H2023
Procedure, shortened: as §1

[11] = tested on: COR-L23
Procedure, shortened: as §1

NC(=O)Nc1cc(-c2cccc(F)c2)sc1C(=O)N[C@H]1CCCNC1 [AZD7762] + CCNC(=O)c1noc(-c2cc(C(C)C)c(O)cc2O)c1-c1ccc(CN2CCOCC2)cc1 [Luminespib] (partner 0.01 µM)
relative viability ([1]; first compound 0.1 µM): 0.146 | relative viability ([1]; first compound 0.3162 µM): 0.162 | relative viability ([1]; first compound 1 µM): 0.157 | relative viability ([2]; first compound 0.01 µM): 0.277 | relative viability ([2]; first compound 0.03162 µM): 0.336 | relative viability ([2]; first compound 0.1 µM): 0.199 | relative viability ([2]; first compound 0.3162 µM): 0.157 | relative viability ([2]; first compound 1 µM): 0.174 | relative viability ([3]; first compound 0.01 µM): 0.139 | relative viability ([3]; first compound 0.03162 µM): 0.162 | relative viability ([3]; first compound 0.1 µM): 0.165 | relative viability ([3]; first compound 0.3162 µM): 0.133 | relative viability ([3]; first compound 1 µM): 0.125 | relative viability ([4]; first compound 0.01 µM): 0.823 | relative viability ([4]; first compound 0.03162 µM): 0.707 | relative viability ([4]; first compound 0.1 µM): 0.784 | relative viability ([4]; first compound 0.3162 µM): 0.672 | relative viability ([4]; first compound 1 µM): 0.33 | relative viability ([5]; first compound 0.01 µM): 1.23 | relative viability ([5]; first compound 0.03162 µM): 0.967 | relative viability ([5]; first compound 0.1 µM): 0.815 | relative viability ([5]; first compound 0.3162 µM): 0.58 | relative viability ([5]; first compound 1 µM): 0.322 | relative viability ([6]; first compound 0.01 µM): 1.14 | relative viability ([6]; first compound 0.03162 µM): 0.999 | relative viability ([6]; first compound 0.1 µM): 1.09 | relative viability ([6]; first compound 0.3162 µM): 0.593 | relative viability ([6]; first compound 1 µM): 0.384 | relative viability ([7]; first compound 0.01 µM): 1.23 | relative viability ([7]; first compound 0.03162 µM): 1.16 | relative viability ([7]; first compound 0.1 µM): 1.19 | relative viability ([7]; first compound 0.3162 µM): 1.23 | relative viability ([7]; first compound 1 µM): 1.04 | relative viability ([8]; first compound 0.01 µM): 0.226 | relative viability ([8]; first compound 0.03162 µM): 0.189 | relative viability ([8]; first compound 0.1 µM): 0.194 | relative viability ([8]; first compound 0.3162 µM): 0.206 | relative viability ([8]; first compound 1 µM): 0.194 | relative viability ([9]; first compound 0.01 µM): 1.06 | relative viability ([9]; first compound 0.03162 µM): 0.975 | relative viability ([9]; first compound 0.1 µM): 1.12 | relative viability ([9]; first compound 0.3162 µM): 0.935 | relative viability ([9]; first compound 1 µM): 0.663 | relative viability ([10]; first compound 0.01 µM): 0.824 | relative viability ([10]; first compound 0.03162 µM): 0.498 | relative viability ([10]; first compound 0.1 µM): 0.228 | relative viability ([10]; first compound 0.3162 µM): 0.141 | relative viability ([10]; first compound 1 µM): 0.114 | relative viability ([11]; first compound 0.01 µM): 0.687 | relative viability ([11]; first compound 0.03162 µM): 0.653 | relative viability ([11]; first compound 0.1 µM): 0.568 | relative viability ([11]; first compound 0.3162 µM): 0.216 | relative viability ([11]; first compound 1 µM): 0.117

— the supplement of paper PMC10307832
